Entries after “also recorded” stand apart in the source; their conditions may differ.
What was measured:
PDH = test: Immunoblotting of hypoxia-induced PDH phosphorylation; type: cell-based, human; details: U87 and U251 cells expressing PGK1 shRNA, hypoxia 6 h
Method: FIGS. 5A-E. PDHK1 Phosphorylation by PGK1 Activates PDHK1. Immunoblotting analyses were performed with the indicated antibodies. FIG. 5A. Bacterially purified His-PDH with purified WT PDHK1 or PDHK1 T338A was mixed with purified WT PGK1 or PGK1 T378P. In vitro phosphorylation analyses were performed. FIG. 5B. […] FIG. 5C. U87 and U251 cells expressing PDHK1 shRNA with or without reconstituted expression of WT rPDHK1 or rPDHK1 T338A were stimulated with or without hypoxia for 6 h. FIG. 5D. […] FIG. 5E.

histone H3 at Ser10 = test: Western blot of EGF-induced histone H3 S10 phosphorylation; type: cell-based, human; details: U87 cells expressing PGK1 shRNA, EGF stimulation
PDHK1 T338 = test: Immunoblotting of hypoxia-induced PDHK1 T338 phosphorylation; type: cell-based, human; details: U87 and U251 cells with PGK1 shRNA, hypoxia 6 h
Method: FIGS. 14A-P. Mitochondrial PGK1 Phosphorylates PDHK1 at T338. FIG. 14A. […] Immunoblotting analyses were performed with the indicated antibodies. FIG. 14B. U87 cells (left panel) or U87/EGFR (right panel) cells expressing PGK1 shRNA with or without reconstituted expression of WT rPGK1 and the indicated mutants were stimulated with or without hypoxia for 6 h (left panel) or EGF (100 ng/ml) (right panel) for 6 h. These cells were incubated with [1-^14C]-pyruvate for 2 h. [1-^14C]CO2 production rates were measured. FIG. 14C. U87 cells expressing SFB-PDHK1, SFB-PDHK2, SFB-PDHK3, or SFB-PDHK4 were stimulated with or without hypoxia for 6 h. Mitochondrial fractions of these cells were prepared. SFB pull-down analyses with streptavidin-conjugated beads were performed. Immunoblotting analyses were performed with the indicated antibodies. FIG. 14D. […] Phospho-amino acid analysis of gel-isolated ^32P-phosphorylated SUMO-PDHK1 was performed. […] On the autoradiogram in the right hand panel, the green circle indicates pSer; the red circle indicates pThr; and the black circle indicates pTyr. FIG. 14E. […] FIG. 14F. […] ATP concentrations in mitoplast isolated from U87 or U251 cells treated with or without hypoxia for 6 h were measured. […] The glycolytic activities of bacterially purified WT PGK1, PGK1 T378P, PGK1 S203A, and PGK1 R39/K41A were measured. […]

PDH complex = details: isolated mitochondria of U87 cells with PGK1 shRNA, hypoxia 6 h
Method: U87 cells with or without PGK1 shRNA and with or without reconstituted expression of WT rPGK1 or rPGK1 S203A were stimulated with or without hypoxia for 6 h. Mitochondrial fractions of the cells were prepared and activity of PDH complex-mediated conversion of ^14C-labeled pyruvate into ^14C-labeled CO2 was measured. Data represent the means±SD of three independent experiments. *p<0.01.
The [1-^14C]-pyruvate conversion assay was performed as previously described (Pezzato et al., 2009) with minor modification. Briefly, ^14CO2 production through the PDH complex was measured using isolated mitochondria (1 mg) in the 1 ml mitochondria resuspension buffer (200 mM sucrose, 10 mM Hepes [pH 7.4], 5 mM malate, 2 mM monosodium phosphate, 2 mM ADP, 1 mM EGTA) containing [1-^14C]-pyruvate (0.1 μCi/ml). The incubation mixture in a 2-ml Eppendorf tube was placed at the bottom of a 20-ml scintillation vial with a foil-lined screw cap and maintained in agitation. The ^14CO2 produced during incubation was trapped by 1 ml of hyamine hydroxide at the bottom of the scintillation vial. […] Then, 19 ml of scintillator liquid was added to each scintillation vial and radioactivity was measured on a scintillation counter. The results were normalized based on mitochondrial protein levels measured by Bradford assay using bovine serum albumin as the standard.

PGK1 shRNA: pGIPZ PGK1 shRNA generated with GGATGTCTATGTCAATGATGC (SEQ ID NO: 4)
hypoxia-induced PDH phosphorylation (PDH): blocked | EGF-induced phosphorylation of histone H3 at Ser10 (histone H3 at Ser10): blocked; also recorded: greatly diminished | hypoxia-induced PDHK1 T338 phosphorylation (PDHK1 T338): blocked | hypoxia-induced suppression of conversion of pyruvate to CO2 (PDH complex): significantly counteracted
